The values below come from patent publication US9663464B2, “Carbazole derivatives acting on 5-HT7 receptor” (KOREA INSTITUTE OF SCIENCE AND TECHNOLOGY, priority 2015, dated 2017).

Molecules are shown by their SMILES. Where a name gives a salt, the structure may show the parent alone.

Assay [1] addresses T1, human gene recombinant 5-HT7 receptor expressed in CHO cells (Homo sapiens, UniProt P34969).
T1 construct: expressed in transfected cells; host or cells: CHO cells (membrane preparation)
Nature of the assay: Binding affinity for the 5-HT7 serotonin receptor ([3H]LSD radioligand). The method, then: In this example, the human gene recombinant 5-HT7 receptor expressed in CHO cells was used. 1 nM [^3H]LSD, 5-HT7 receptor membrane (15 μg/well), a test drug, 10 mM MgCl2, 50 mM Tris-HCl buffer (pH 7.4) containing 0.1 mM EDTA, etc. were added to a vessel until the final volume reached 0.25 ml. The test drug was used at various concentrations. The mixture was cultured at 25° C. for 90 min. The culture was rapidly filtered through a Whatman GF/C glass fiber filter, which had been previously wetted with 0.3% polyethyleneimine using a Brandel harvester, to quench the reaction. The reaction mixture was washed with cold 50 mM Tris-HCl buffer. The filter was covered with MeltiLex, sealed in a sample bag, and dried in an oven. Counting was performed using MicroBeta (Wallac) and nonspecific binding was measured in the presence of […]. The K value of the test drug was obtained from nonlinear regression analysis (GraphPad Prism Program, San Diego, USA) of isotherms obtained by repeatedly performing the experiment on the drug at 10-11 stage concentrations in two test tubes (each twice).
The % inhibition values of the inventive compounds having different Y structures at a concentration of 10 μM against the 5-HT7 serotonin receptor were measured. Further, the binding affinity (Ki) values of the inventive compounds having different Y structures at a concentration of 10 μM for the 5-HT7 serotonin receptor were measured.

The target of assay [2] is 5-HT1E (Homo sapiens, UniProt P28566). Nature of the assay: 5-HT1E receptor inhibition (Table 1). Format: binding.
The target in assay [3] is T2, 5-HT2C (Homo sapiens, UniProt P28335).
T2 sequence (P28335 33-458): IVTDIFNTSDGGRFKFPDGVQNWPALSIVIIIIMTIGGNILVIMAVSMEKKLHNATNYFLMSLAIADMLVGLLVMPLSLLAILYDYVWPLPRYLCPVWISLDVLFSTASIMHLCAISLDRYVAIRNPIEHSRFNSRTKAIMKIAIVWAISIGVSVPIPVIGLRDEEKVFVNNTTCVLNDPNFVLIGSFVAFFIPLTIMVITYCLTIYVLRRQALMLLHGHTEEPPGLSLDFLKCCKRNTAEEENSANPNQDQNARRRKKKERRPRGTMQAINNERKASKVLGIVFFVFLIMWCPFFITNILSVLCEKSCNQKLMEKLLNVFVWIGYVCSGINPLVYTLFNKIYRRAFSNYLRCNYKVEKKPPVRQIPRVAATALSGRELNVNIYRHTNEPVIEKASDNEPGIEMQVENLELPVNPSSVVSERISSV
Put plainly: 5-HT2C receptor inhibition/binding (Tables 1-3).

Assay [4] deals with T3, 5-HT1A (Homo sapiens, UniProt P08908).
T3 sequence (P08908 1-422): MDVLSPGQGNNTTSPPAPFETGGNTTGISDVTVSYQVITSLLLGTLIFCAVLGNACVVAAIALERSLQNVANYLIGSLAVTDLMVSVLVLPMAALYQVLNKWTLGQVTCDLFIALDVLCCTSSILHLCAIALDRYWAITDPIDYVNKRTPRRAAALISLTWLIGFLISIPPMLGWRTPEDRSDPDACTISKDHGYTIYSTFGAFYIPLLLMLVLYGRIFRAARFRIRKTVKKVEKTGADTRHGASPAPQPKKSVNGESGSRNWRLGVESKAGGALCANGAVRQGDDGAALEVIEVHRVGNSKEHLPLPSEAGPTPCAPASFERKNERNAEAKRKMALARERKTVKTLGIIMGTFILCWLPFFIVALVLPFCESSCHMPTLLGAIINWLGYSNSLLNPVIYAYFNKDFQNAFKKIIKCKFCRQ
Put plainly: 5-HT1A receptor inhibition (Table 3). Format: binding.

The target of assay [5] is 5-HT6 (Homo sapiens, UniProt P50406). Nature of the assay: 5-HT6 receptor inhibition/binding (Tables 2-3). The following applies: 10 μM.
5-HT6, sequence (P50406 whole entry, species assumed): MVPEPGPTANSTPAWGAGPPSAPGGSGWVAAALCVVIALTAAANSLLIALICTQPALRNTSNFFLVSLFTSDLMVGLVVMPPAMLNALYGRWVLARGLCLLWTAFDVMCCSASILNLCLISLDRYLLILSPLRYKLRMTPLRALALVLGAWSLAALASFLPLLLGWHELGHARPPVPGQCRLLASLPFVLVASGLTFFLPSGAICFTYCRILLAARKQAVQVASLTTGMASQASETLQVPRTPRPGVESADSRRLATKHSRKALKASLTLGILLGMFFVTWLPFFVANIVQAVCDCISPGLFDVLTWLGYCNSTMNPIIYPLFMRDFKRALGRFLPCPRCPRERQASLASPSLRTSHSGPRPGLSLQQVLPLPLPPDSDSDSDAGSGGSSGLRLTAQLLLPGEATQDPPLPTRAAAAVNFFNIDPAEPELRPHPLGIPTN

5-HT1E, sequence (P28566 whole entry, species assumed): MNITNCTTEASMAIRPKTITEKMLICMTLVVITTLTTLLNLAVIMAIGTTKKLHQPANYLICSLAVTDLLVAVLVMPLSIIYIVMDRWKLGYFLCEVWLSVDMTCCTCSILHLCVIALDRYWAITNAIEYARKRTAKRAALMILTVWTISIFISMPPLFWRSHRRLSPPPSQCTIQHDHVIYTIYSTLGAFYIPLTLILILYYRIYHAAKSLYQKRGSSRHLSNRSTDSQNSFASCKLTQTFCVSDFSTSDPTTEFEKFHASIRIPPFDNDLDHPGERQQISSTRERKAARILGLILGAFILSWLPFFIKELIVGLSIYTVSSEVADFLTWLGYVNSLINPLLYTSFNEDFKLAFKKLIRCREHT
T1 sequence (P34969 whole entry): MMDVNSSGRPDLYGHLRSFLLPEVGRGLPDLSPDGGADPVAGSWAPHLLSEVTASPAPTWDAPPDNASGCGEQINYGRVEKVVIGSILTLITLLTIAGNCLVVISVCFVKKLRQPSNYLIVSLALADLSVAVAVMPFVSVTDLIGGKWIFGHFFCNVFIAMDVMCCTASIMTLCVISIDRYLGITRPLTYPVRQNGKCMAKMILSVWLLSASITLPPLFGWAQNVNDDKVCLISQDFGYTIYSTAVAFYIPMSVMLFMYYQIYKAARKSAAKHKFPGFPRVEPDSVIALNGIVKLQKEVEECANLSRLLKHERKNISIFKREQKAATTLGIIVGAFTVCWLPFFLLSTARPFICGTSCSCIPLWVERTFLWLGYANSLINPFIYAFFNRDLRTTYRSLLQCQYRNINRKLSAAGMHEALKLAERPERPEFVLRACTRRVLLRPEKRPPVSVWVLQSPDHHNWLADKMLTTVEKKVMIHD

By Ki is commonly meant the equilibrium dissociation constant of an inhibitor or competing ligand from its target. In general, inhibition refers to the drop in the measured response relative to a control, in per cent. Turning to `CCCCN(C)CCCCCC(=O)n1c2ccccc2c2ccccc21` [Example 2.1, 6-(Butyl(methyl)amino)-1-(9H-carbazol-9-yl)hexan-1-one hydrochloride], the inhibition constant Ki is 680 nM in assay [1] and 207 nM in assay [3]. Besides, the inhibition at 10 µM in assay [1] turned out to be 82.8%; in assay [2], 51.3%; in assay [3], 87.4%.
Take `CN(CCCCCC(=O)n1c2ccccc2c2ccccc21)Cc1ccccc1` [Example 2.2, 6-(Benzyl)methyl)amino)-1-(9H-carbazol-9-yl)hexan-1-one hydrochloride]: the figures for the inhibition at 10 µM in assay [1], in assay [2] and in assay [3] were 92%, 10.2% and 54.6%, respectively. The affinity in assay [3] corresponds to a Ki of 1320 nM.
For the compound `O=C(CCCCCN1CCCC1)n1c2ccccc2c2ccccc21` [Example 2.3, 1-(9H-carbazol-9-yl)-6-(pyrrolidin-1-yl)hexan-1-one hydrochloride], the Ki in assay [1] stood at 1050 nM; in assay [3], 764 nM. For the same compound, the inhibition at 10 µM in assay [1] was found to be 74%; in assay [2] it was 13.9%; in assay [3], 76.7%.
For `CC1CCCN(CCCCCC(=O)n2c3ccccc3c3ccccc32)C1` (centres unmarked) [Example 2.5, 1-(9H-carbazol-9-yl)-6-(3-methylpiperidin-1-yl)hexan-1-one hydrochloride] the same measures were 550 nM, 486 nM, 84.6%, -15.3% and 86.6%.
In the case of `CC1CC(C)CN(CCCCCC(=O)n2c3ccccc3c3ccccc32)C1` (centres unmarked) [Example 2.6, 1-(9H-carbazol-9-yl)-6-(3,5-dimethylpiperidin-1-yl)hexan-1-one hydrochloride], the Ki was 833 nM in assay [1] and 454 nM in assay [3]. Further, the inhibition at 10 µM in assay [1] was 77.2%; in assay [2], -21.9%; in assay [3], 80.6%.
The like results for `O=C(CCCCCN1CCCCCC1)n1c2ccccc2c2ccccc21` [Example 2.7, 6-(Azepan-1-yl)-1-(9H-carbazol-9-yl)hexan-1-one hydrochloride] were, in that order, 616 nM, 411 nM, 86%, 1.8% and 77.2%.
With `CC(=O)N1CCN(CCCCCC(=O)n2c3ccccc3c3ccccc32)CC1` [Example 2.11, 6-(4-Acetylpiperazin-1-yl)-1-(9H-carbazol-9-yl)hexan-1-one hydrochloride], the Ki in assay [1] was determined as 2340 nM. For the same compound, the inhibition at 10 µM in assay [1] worked out at 72.1%; in assay [4], 51.8%; in assay [3], 51.3%; in assay [5], 24.5%.
`CN1CCN(CCCCCC(=O)n2c3ccccc3c3ccccc32)CC1` [Example 2.12, 1-(9H-carbazol-9-yl)-6-(4-methylpiperazin-1-yl)hexan-1-one hydrochloride]: the inhibition constant Ki in assay [1] was found to be 1910 nM. For the same compound, the inhibition at 10 µM was determined as 50% in assay [1], 5.5% in assay [4], 82.5% in assay [3] and 77.6% in assay [5].
On to `O=C(CCCCCN1CCN(Cc2ccccc2)CC1)n1c2ccccc2c2ccccc21` [Example 2.13, 6-(4-Benzylpiperazin-1-yl)-1-(9H-carbazol-9-yl)hexan-1-one hydrochloride], for which the Ki in assay [1] turned out to be 127 nM. Moreover, the inhibition at 10 µM in assay [1] came out at 94.8%; in assay [4] it was 76.8%; in assay [3], 72.3%; in assay [5] it was 57.9%.
Regarding `COc1ccccc1N1CCN(CCCCCC(=O)n2c3ccccc3c3ccccc32)CC1` [Example 2.16, 1-(9H-carbazol-9-yl)-6-(4-(2-methoxyphenyl)piperazin-1-yl)hexan-1-one], the Ki in assay [1] was found to be 74 nM. Moreover, the inhibition at 10 µM in assay [1] amounted to 102%; in assay [4], 108%; in assay [3], 55.8%; in assay [5] it was 30.7%.
Consider `CCCCN(C)CCCCC(=O)n1c2ccccc2c2ccccc21` [Example 2.17, 5-(Butyl(methyl)amino)-1-(9H-carbazol-9-yl)pentan-1-one hydrochloride], for which, in assay [1], the inhibition constant (Ki) was determined as 1280 nM and the inhibition at 10 µM turned out to be 50%. For the same compound, the inhibition at 10 µM in assay [2] is 73.9%.
For the compound `CC(=O)N1CCN(CCCCC(=O)n2c3ccccc3c3ccccc32)CC1` [Example 2.27, 5-(4-Acetylpiperazin-1-yl)-1-(9H-carbazol-9-yl)pentan-1-one hydrochloride], the inhibitory constant (Ki) in assay [1] was found to be 1070 nM. Also, the inhibition at 10 µM in assay [1] turned out to be 64.6%; in assay [4] it was 25.4%; in assay [3], 6.6%; in assay [5], 13.8%.
`O=C(CCCCN1CCN(Cc2ccccc2)CC1)n1c2ccccc2c2ccccc21` [Example 2.29, 5-(4-Benzylpiperazinyl)-1-(9H-carbazol-9-yl)pentan-1-one hydrochloride]: the Ki in assay [1] was 282 nM. Besides, the inhibition at 10 µM in assay [1] is 92%; in assay [4] it was 66.5%; in assay [3], 38%; in assay [5], 57.4%.
On to `COc1ccccc1N1CCN(CCCC(=O)n2c3ccccc3c3ccccc32)CC1` [Example 2.34, 1-(9H-carbazol-9-yl)-4-(4-(2-methoxyphenyl)piperazin-1-yl)butan-1-one], for which the inhibition constant Ki in assay [1] is 33 nM. In addition, the inhibition at 10 µM in assay [1] was determined as 97.7%; in assay [4], 104%; in assay [3] it was 74.2%; in assay [5] it was 51.5%.
On to `CN(CCCCCCn1c2ccccc2c2ccccc21)Cc1ccccc1` [Example 2.36, N-Benzyl-6-(9H-carbazol-9-yl)-N-methylhexane-1-amine], for which the inhibition constant (Ki) in assay [1] worked out at 1980 nM. Further, the inhibition at 10 µM in assay [1] was 64%; in assay [2] it was -13.2%.
Take `c1ccc2c(c1)c1ccccc1n2CCCCCCN1CCCC1` [Example 2.37, 9-(6-(Pyrrolidin-1-yl)hexyl)-9H-carbazole]: in assay [1], the Ki is 1550 nM and the inhibition at 10 µM was found to be 66.9%. Moreover, in assay [2], the inhibition at 10 µM was found to be 21.1%.
With `CC1CCN(CCCCCCn2c3ccccc3c3ccccc32)CC1` [Example 2.38, 9-(6-(4-Methylpiperidin-1-yl)hexyl)-9H-carbazole], the Ki in assay [1] was 597 nM. The inhibition at 10 µM was 82.9% in assay [1] and -9.4% in assay [2].
With `CC1CCCN(CCCCCCn2c3ccccc3c3ccccc32)C1` (centres unmarked) [Example 2.39, 9-(6-(3-Methylpiperidin-1-yl)hexyl)-9H-carbazole], in assay [1], the Ki came out at 909 nM and the inhibition at 10 µM was found to be 75.6%. In assay [2], the inhibition at 10 µM is 1.5%.
Consider `CC1CC(C)CN(CCCCCCn2c3ccccc3c3ccccc32)C1` (centres unmarked) [Example 2.40, 9-(6-(3,5-Dimethylpiperidin-1-yl)hexyl)-9H-carbazole], for which, in assay [1], the inhibition constant (Ki) stood at 1600 nM and the inhibition at 10 µM came out at 57.7%. Also, in assay [2], the inhibition at 10 µM was -7.3%.
`c1ccc2c(c1)c1ccccc1n2CCCCCCN1CCCCCC1` [Example 2.41, 9-(6-(Azepan-1-yl)hexyl)-9H-carbazole]: in assay [1], the Ki came out at 952 nM and the inhibition at 10 µM amounted to 71.3%. For the same compound, the inhibition at 10 µM in assay [2] came to 2.7%.
For `COc1ccccc1N1CCN(CCCn2c3ccccc3c3ccccc32)CC1` [Example 2.60, 9-(3-(4-(2-Methoxyphenyl)piperazin-1-yl)propyl)-9H-carbazole], the inhibition constant (Ki) in assay [1] was determined as 155 nM. In addition, the inhibition at 10 µM in assay [1] worked out at 90.7%; in assay [4] it was 103%; in assay [5], 12.2%.
